Test results from patent US6238875A, “Diagnostic methods useful in the characterization of lymphoproliferative disease characterized by increased EPR-1” (The Scripps Research Institute, priority 1994, dated 2001).

System: T lymphocytes
Assay: Intracellular Ca2+ signalling in single adherent T lymphocytes loaded with Indo-1 (real-time fluorescence)
Type: cell-based, human
Conditions: 7 μM ionomycin; Indo-1-loaded T cells; data not shown
Experimental: Early events of intracellular Ca^2+ signalling after EPR-1 occupancy were characterized in real-time fluorescence measurements at the single cell level (Altieri, et al., Biochem. J. 288: 465 (1992)). Freshly isolated T lymphocytes were attached onto Cell-Tak-(Biopolymers, Farmington, Conn.)-coated optical grade glass coverslips (22 mm^2 diameter and <[…] thickness), and loaded intracellularly with 1 μM of the Ca^2+ -sensitive fluorescent dye Indo-1/AM (Grynkiewicz, et al., J. Biol. Chem. 260: 3440 (1985)) (Calbiochem) in 145 mM NaCl, 5 mM KCl, 1 mM Na2 HPO4, 2.5 mM CaCl2, 10 mM glucose, 25 mM HEPES, 0.5 mM MgSO4 for 45 minutes at 37° C. Cells were gently washed in the same loading buffer, and analyzed in real time fluorescence measurements in digitalized imaging using the interactive laser cytometer ACAS 470, as described (Altieri, et al., Id. (1992)). […] After 125 seconds from the addition of the primary mAb, 50 μg/ml aliquots of goat anti-mouse F(ab')2 fragments were added as a cross-linking reagent, and fluorescence changes in the target cells were monitored continuously during a 3-minute interval. Changes in cytosolic free [Ca^2+ ]i under the various conditions tested are expressed as ratio of Detector 1 (free Indo-1, 485 nm wavelength)/Detector 2 (Indo-1:Ca^2+ complex, 405 nm wavelength).

Question: With C[C@H](CCC(=O)O)C[C@H](C)C[C@H](C)C(=O)/C=C(\O)[C@H](C)C[C@H](C)C/C=C/[C@@H](C)[C@@H](O)[C@@H](C)[C@@H](O)C[C@@H]1CC[C@@](C)([C@H]2CC[C@@](C)([C@@H](C)O)O2)O1 [ionomycin] as the compound, how does the “cytosolic free [Ca2+]i response” value read?
Answer: large and sustained increase
